The results in this text go back to paper PMC10962247 (Science translational medicine, 2024).

The assay addresses T1, Glycogen synthase 1 (GYS1) (Homo sapiens, UniProt P13807).
T1 sequence (P13807 1-737): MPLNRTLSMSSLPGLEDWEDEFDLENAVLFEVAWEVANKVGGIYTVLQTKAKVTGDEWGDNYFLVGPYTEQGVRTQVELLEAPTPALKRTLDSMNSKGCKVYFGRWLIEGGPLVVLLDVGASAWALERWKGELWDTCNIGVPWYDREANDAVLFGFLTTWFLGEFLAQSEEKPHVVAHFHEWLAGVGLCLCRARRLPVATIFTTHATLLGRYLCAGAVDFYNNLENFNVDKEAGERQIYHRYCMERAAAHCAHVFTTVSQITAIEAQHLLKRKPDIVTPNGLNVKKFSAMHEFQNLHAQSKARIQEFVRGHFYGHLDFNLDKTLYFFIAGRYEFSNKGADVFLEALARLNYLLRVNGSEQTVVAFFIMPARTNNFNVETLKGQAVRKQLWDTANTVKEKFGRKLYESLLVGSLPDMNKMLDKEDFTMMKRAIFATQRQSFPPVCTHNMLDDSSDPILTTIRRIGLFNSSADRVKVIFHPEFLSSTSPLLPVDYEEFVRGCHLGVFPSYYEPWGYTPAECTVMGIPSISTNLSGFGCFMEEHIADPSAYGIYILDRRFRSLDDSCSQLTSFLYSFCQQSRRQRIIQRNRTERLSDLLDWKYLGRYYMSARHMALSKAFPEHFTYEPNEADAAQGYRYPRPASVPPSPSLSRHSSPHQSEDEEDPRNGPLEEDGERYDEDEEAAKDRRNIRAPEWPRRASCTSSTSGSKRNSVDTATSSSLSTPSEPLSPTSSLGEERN
T1 sequence (P46976 2-350 partner): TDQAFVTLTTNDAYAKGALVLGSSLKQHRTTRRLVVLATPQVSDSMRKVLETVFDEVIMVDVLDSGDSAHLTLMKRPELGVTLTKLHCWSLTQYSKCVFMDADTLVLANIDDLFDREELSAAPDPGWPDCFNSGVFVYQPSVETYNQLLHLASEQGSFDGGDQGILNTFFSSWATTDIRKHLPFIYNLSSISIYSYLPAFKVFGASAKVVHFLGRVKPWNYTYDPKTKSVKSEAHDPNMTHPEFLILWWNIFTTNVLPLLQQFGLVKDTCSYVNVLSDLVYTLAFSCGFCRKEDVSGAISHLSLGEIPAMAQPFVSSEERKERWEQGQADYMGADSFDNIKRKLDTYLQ
The experiment in a line: PK/LDH coupled enzyme assay with recombinant GYS1 in the presence of G6P. It counts as biochemical.

The IC50 is the point on the concentration scale where inhibition reaches its midpoint. With `CC(C)c1ccc([C@@H](NC(=O)[C@@H]2C[C@@H](F)CN2C(=O)Cc2cn[nH]n2)c2ccccc2)cc1` [MZ-101], the IC50 was 0.041 µM.
